This series is described as follows: gradient 5% acetonitrile 3 min, to 50% in 2 min, to 85% in 15 min, held 3 min, 100 µL/min. As to conditions: column: Zorbax Extend-C18 2.1 x 50 mm; eluents: water / acetonitrile, 0.1% formic acid. The method in brief: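 Each retention time is based on an adduct peak selected computationally and verified by manual inspection. Measurements used HPLC–quadrupole time-of-flight mass spectrometry in positive and negative ionization mode on mixtures of ~100 pure standards. Chromatography ran on a Zorbax Extend-C18 column (2.1 × 50 mm, 1.8 μm) at 100 μL/min with water and acetonitrile, each containing 0.1% formic acid, and dead and dwell volumes of 40 μL and 900 μL.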
On to `Cc1ccc(CC(=O)Nc2ccc3c(c2)CCC(=O)N3)cc1`, for which the RP-LC retention time stood at 708 s.
In turn, `Cc1ccc2c(c1)N(C(=O)Cn1cc(-c3noc(-c4ccncc4)n3)nc1C)CCO2` registered an RP-LC retention time of 735 s.
As for `O=C(O)c1cccc(Nc2c(-c3cccc(Br)c3)nc3cnccn23)c1`, the RP-LC retention time amounted to 748 s.
The figure for `COc1cc(-c2nc(Cn3c(C)nc4ccccc4c3=O)no2)cc(OC)c1OC` is 801 s.
On to `O=C(NCc1ccc2c(c1)OCO2)c1c(O)c2cccnc2n(Cc2ccccc2)c1=O`, for which the RP-LC retention time worked out at 1290 s.
With `O=C1NC(=O)C2(CCc3ccccc32)N1` (stereo not drawn), the RP-LC retention time was determined as 670 s.
Compound `Cc1ccn2cc(-c3ccc(NS(=O)(=O)c4cccc(F)c4)cc3)nc2n1` came in with an RP-LC retention time of 651 s.
`Cc1ccnc(NS(=O)(=O)c2ccc(NC(=O)c3ccc([N+](=O)[O-])s3)cc2)n1`: the RP-LC retention time is 699 s.
In turn, `O=C(c1cccc(Cl)c1)N1N=C(c2ccco2)CC1c1ccco1` (stereo not drawn) displayed an RP-LC retention time of 1020 s.
The compound `CCC(=O)N(C1CCOCC1)C1CCN(S(=O)(=O)c2cc(F)ccc2C)CC1` came in with an RP-LC retention time of 864 s.
Consider `CCOCC(=O)N1C[C@@H]2CCCN3CCC[C@@H]([C@H]23)[C@H]1CCCC(=O)N1CCOCC1`, for which the RP-LC retention time was 563 s.
In the case of `O=C(Cn1cnc2ccccc2c1=O)N1CCCC(c2nnc(-c3ccccc3F)s2)C1` (stereo not drawn), the RP-LC retention time turned out to be 730 s.
The figure for `CN1C(=O)c2cccnc2Sc2cc(NC(=O)c3ccc(F)cc3Cl)ccc21` is 796 s; for `CCOc1ccc(-c2nc(Cn3ccn4nc(-c5ccc(OC)cc5)cc4c3=O)c(C)o2)cc1OC` it is 1030 s; for `CCc1nc2c(=O)n(CC(=O)N3CCCC3)nc(C)c2s1` it is 620 s.
The figure for `CCc1ccccc1N1C[C@@]23C=C[C@@H](O2)[C@H](C(=O)OC)[C@@H]3C1=O` is 730 s; for `O=C(Nc1ccc2ncsc2c1)c1cc(Cl)sc1Cl` it is 852 s; for `Cc1cc(C)cc(-n2ccnc(NC(=O)Nc3ccc(C)c(F)c3)c2=O)c1` it is 1140 s.
On to `COc1cccc(-c2nc(C3CC(=O)N(c4ccc(Cl)cc4)C3)no2)c1` (stereo not drawn), for which the RP-LC retention time amounted to 1050 s.
In the case of `O=C(NCCC1CCN(C(=O)Nc2ccccc2F)CC1)c1ccco1`, the RP-LC retention time is 1170 s.
As for `CCCn1cnc2cc(CNC(=O)c3cc4cc(Cl)ccc4[nH]3)ccc21`, the RP-LC retention time worked out at 720 s.
`CCOc1ccc(NC(=O)CSc2cc(N3CCN(c4ccc(OC)cc4)CC3)ncn2)cc1` gave an RP-LC retention time of 1160 s.
`CC1=C(c2ccc(Cl)cc2)S(=O)(=O)N=C1N1CCCN(C(=O)c2ccco2)CC1` had an RP-LC retention time of 823 s.
In turn, `O=C(NCc1ccncc1)C1CN(S(=O)(=O)C2CC2)CC12CCCCC2` (stereo not drawn) had an RP-LC retention time of 598 s.
Consider `Cc1cc(C)n(-c2cc(SCC(=O)NCc3ccco3)ncn2)n1`, for which the RP-LC retention time is 779 s.
The figure for `CS(=O)(=O)c1nc2ccc(NS(=O)(=O)c3ccc4c(c3)OCCO4)cc2s1` is 792 s; for `O=C1CCN(S(=O)(=O)c2ccccc2)CCCN(C(=O)Nc2ccc3c(c2)OCCO3)CCN1` it is 701 s; for `Cc1ccnc(N2CCC(C(=O)N3CCN(C(=O)c4ccco4)CC3)CC2)n1` it is 616 s.
`CN(CC1CCOC1)C(=O)Nc1cc(F)ccc1F` (stereo not drawn) displayed an RP-LC retention time of 704 s.
Regarding `CC(C)N1C(=O)c2cccnc2Sc2cc(NC(=O)c3ccco3)ccc21`, the RP-LC retention time turned out to be 776 s.
Take `O=C(C1CCN(c2nc3cccnc3s2)CC1)N1CCN(c2ccccn2)CC1`: the RP-LC retention time is 590 s.
In turn, `CC1CCCCN1CCCNC(=O)CCC(=O)N1CCc2c(c(C(=O)N3CCCCC3)nn2C)C1` (stereo not drawn) returned an RP-LC retention time of 578 s.
`CCCCOc1ccc(-c2cc3c4nn(CC(=O)NC5CCCC5)c(=O)n4ccn3n2)cc1` showed an RP-LC retention time of 1050 s.
`O=C(c1cn(-c2cc(Nc3ccccc3)ncn2)cn1)N1CCOCC1` registered an RP-LC retention time of 676 s.
The compound `COc1cc(Nc2nc(-c3nnn(-c4ccc(F)cc4)c3C)ns2)cc(OC)c1` yielded an RP-LC retention time of 990 s.
The figure for `CCOCCCNC(=O)N1CCC2(CC1)Nc1cc(F)ccc1-n1cccc12` is 858 s.
The figure for `CN(C)c1ccc(CNC(=O)Cn2cnc3nc4c(cc3c2=O)CCCC4)cc1` is 586 s.
With `CC(C)(C)Sc1ccc2nn(CC(=O)Nc3ccccc3C(F)(F)F)c(=O)n2n1`, the RP-LC retention time is 816 s.
The compound `CCn1ccc2cc(S(=O)(=O)N3CCC(C(=O)NCCC(C)N4CCCC4)CC3)ccc21` (stereo not drawn) had an RP-LC retention time of 648 s.
With `COc1ccc(S(=O)(=O)NC2CCN(C(=O)c3ccnn3C)CC2)cc1`, the RP-LC retention time came to 658 s.
In turn, `NC(=O)c1c(NC(=O)C2CCCN(C(=O)c3ccc4c(c3)OCCO4)C2)sc2c1CCCC2` (stereo not drawn) showed an RP-LC retention time of 839 s.
As for `CC(C)CN1Cc2ccccc2-n2ccnc2C12CCN(C(=O)c1ccoc1)CC2`, the RP-LC retention time is 665 s.
On to `Cc1ccc(NC(=O)Cn2c(C)nc3c(sc4nc(-c5ccccc5)ccc43)c2=O)cc1F`, for which the RP-LC retention time was found to be 1110 s.
`COCCNS(=O)(=O)c1ccc(-c2ccc(C)cc2)cc1` displayed an RP-LC retention time of 890 s.
Compound `CC(CNC(=O)c1cc2n(n1)CC(C)(C(=O)NC1CCCCC1)N(C)C2=O)c1ccccc1` (stereo not drawn) yielded an RP-LC retention time of 795 s.
Take `CCn1ccc(C(=O)N2CCC(c3nc(-c4ccncc4)no3)C2)n1` (stereo not drawn): the RP-LC retention time was found to be 640 s.
As to `Fc1cccc(-c2cc(CN3CCN(c4ncccn4)CC3)[nH]n2)c1`, the RP-LC retention time stood at 618 s.
With `CCOc1ccc(-c2ccc(=O)n(CCc3nc(-c4ccc5c(c4)OCO5)no3)n2)cc1`, the RP-LC retention time amounted to 986 s.
On to `COc1cccc(S(=O)(=O)N2CCC(n3cnnc3C3CC3)CC2)c1`, for which the RP-LC retention time stood at 695 s.
In turn, `CCc1ccc(-c2noc(Cn3c(=O)n(-c4cccc(OC)c4)c(=O)c4sccc43)n2)cc1` registered an RP-LC retention time of 1060 s.
The figure for `CC(O)Cn1cnc2c1c(=O)n(C)c(=O)n2C` (stereo not drawn) is 1100 s; for `Cc1ccc(NC(=O)Nc2cccn3nc(C)nc23)cc1` it is 803 s.
`CCOCCCNC(=O)C1CCCN(c2nc3ccccc3n(Cc3ccc(C)cc3)c2=O)C1` (stereo not drawn) had an RP-LC retention time of 1080 s.
Take `CCOc1cccc(-c2noc(CCn3nc(-c4ccc5c(c4)OCO5)ccc3=O)n2)c1`: the RP-LC retention time is 978 s.
The compound `CCN(CC)CCNS(=O)(=O)c1cc(-c2[nH]ncc2C(=O)N2CCCC2)oc1C` gave an RP-LC retention time of 565 s.
In turn, `O=C(c1cccc(Br)c1)N1CCC(n2c(-c3ccco3)nc3cccnc32)C1` (stereo not drawn) showed an RP-LC retention time of 814 s.
In turn, `C#Cc1cccc(Nc2ncnc3cc(OCCOC)c(OCCO)cc23)c1` came in with an RP-LC retention time of 663 s.
`O=C(NCCCc1ccccc1)c1n[nH]c2c1CN(C(=O)C1CC1)CC2`: the RP-LC retention time was found to be 789 s.
For `CCN(CC)S(=O)(=O)c1ccc(-n2cnc(C(=O)NCc3ccc(OC)c(OC)c3)c2)cc1`, the RP-LC retention time was 766 s.
`Cc1nnc(N2CCCC(C(=O)NC3CCCCC3)C2)c2nn(-c3ccc(Cl)cc3)c(C)c12` (stereo not drawn) had an RP-LC retention time of 784 s.
Consider `COc1ccc(-c2cc3n(n2)CCCN(C(=O)NCCc2ccccc2)C3)cc1`, for which the RP-LC retention time worked out at 814 s.
On to `CCCNC(=O)CN1CCN(c2cc(C(=O)O)c3cc(NC(=O)C(C)C)ccc3n2)CC1`, for which the RP-LC retention time worked out at 568 s.
For the compound `CS(=O)(=O)N1CCCc2cc(C(=O)Nc3ccccc3Br)ccc21`, the RP-LC retention time worked out at 927 s.
In turn, `CCC(C)NC(=O)N1CCN(Cc2nc3cccnc3n2-c2cccc(C)c2)CC1` (stereo not drawn) had an RP-LC retention time of 646 s.
Regarding `CCCc1ccc(-c2cc(C(=O)N3CCN(c4ccccn4)CC3)c3ccccc3n2)cc1`, the RP-LC retention time was determined as 857 s.
Regarding `Cc1nc(CC(=O)Nc2c(F)cccc2F)sc1C(=O)NC1CC1`, the RP-LC retention time came out at 660 s.
For the compound `O=C(CCN1C(=O)c2ccccc2S1(=O)=O)Nc1nc(-c2ccccc2)cs1`, the RP-LC retention time was determined as 941 s.
In turn, `Cc1ccc(OCC(=O)Nc2cncc(-c3nc4ccccc4o3)c2)cc1` showed an RP-LC retention time of 1010 s.
With `O=C(Nc1ccc2c(c1)OCCO2)C(=O)c1cccn1Cc1ccccc1`, the RP-LC retention time is 1040 s.
The compound `O=C(CC1CCN(C(=O)c2cc3cc(Cl)ccc3[nH]2)CC1)NCc1ccco1` returned an RP-LC retention time of 802 s.
On to `Cc1cc(=O)n(CC(=O)Nc2cccc(C(F)(F)F)c2)c(N2CCOCC2)n1`, for which the RP-LC retention time was 754 s.
`CCOc1ccc(CNC(=O)c2cnc(OC)nc2)cc1`: the RP-LC retention time was 732 s.
The compound `CCN1C(=O)C2(CCN(S(=O)(=O)Cc3ccc(Cl)cc3)CC2)c2ccccc21` gave an RP-LC retention time of 1050 s.
In turn, `Cc1sc(NC(=O)c2ccc(F)cc2)nc1-c1ccc(Br)cc1` had an RP-LC retention time of 1240 s.
Turning to `CCOC(=O)O[C@]1(C(=O)OCCl)CCC2[C@@H]3CCC4=CC(=O)C=C[C@]4(C)C3[C@@H](O)C[C@@]21C` (stereo partly drawn), the RP-LC retention time is 1110 s.
`CN(C)C1(CC2CC2)CCN(C(=O)c2ccco2)CC1` gave an RP-LC retention time of 556 s.
Compound `Cc1ccc2[nH]cc(CCN3CC(C(=O)Nc4cccc(Br)c4)CC3=O)c2c1` (stereo not drawn) showed an RP-LC retention time of 911 s.
The figure for `COc1ccc(NC(=O)Nc2cccn3c(C4CCC4)nnc23)cc1F` is 815 s.

These data come from the METLIN SMRT retention time set (Domingo-Almenara et al. 2019).
